# Measurements as given in patent US20130274651A1, “SYSTEM AND METHOD FOR IMPROVING OUTCOME OF CEREBRAL ISCHEMIA” (priority 2012, published 2013).
# Entries after “also recorded” stand apart in the source; their conditions may differ.
# Columns and labels:
# [1] = Cerebral blood flow by cortical laser Doppler during intranasal nitric oxide in intubated rodents; assay type: in vivo
# Description: (§1) In intubated rodents, the inventors have shown that cerebral blood flow increases by 100% within 60 minutes of intranasal nitric oxide delivery.
# [2] = Carotid artery occlusion model, Speckle laser Doppler, intubated rodents; assay type: in vivo
# Description: as §1
# Increase in cerebral blood flow is attributable to focal intranasal or intra-oral effect of nitric oxide rather than to systemic absorption of the gas. […] The effect on cerebral blood flow during intranasal delivery of nitric oxide with concomitant air inhalation into the lungs is therefore a focal effect on intranasal and intracranial vasculature attributable specifically to nitric oxide. […] In a non-intubated patient, nitric oxide inhalation can be prevented by occluding the nasal cavity anterior or posterior to the site of gas delivery. This is achieved by means of an anterior occlusion device such a rigid member, an expandable member, a compressible member, a sponge, a porous member, a plug, a balloon, foam and/or combinations of the foregoing, which prevent inhalation through the nostrils while maintaining a high concentration of nitric oxide in the nasal cavity. A non-intubated patient may be allowed to inhale air into the lungs during nitric oxide delivery into the nasal cavity by an optional central lumen with the distal orifice beyond the sites of nasal gas delivery and occlusion device.
# [3] = CT perfusion scanning in intubated patients with cerebral ischemia treated with intranasal non-inhaled nitric oxide; assay type: in vivo, human
# [4] = Tolerability of intranasal delivery in humans (normal volunteers); assay type: in vivo, human; settings: high concentration
# Text: While nitric oxide may be given intranasally and without inhalation into the lungs to intubated, comatose individuals the tolerability of intranasal nitric oxide in awake humans has not previously been investigated. The inventors have tested the effect of nitric oxide in humans (normal volunteers) during intranasal delivery. […] Therefore it can easily be tolerated by awake, non-intubated patients.
structure (smiles),measurement,setting,value
[N]=O [nitric oxide],cerebral blood flow change (FIG. 8),"[1]; cortical laser Doppler, during intranasal administration",doubling of cerebral blood flow
same,cerebral blood flow increase,[1]; within 60 minutes of intranasal delivery,100%
same,perfusion in the ischemic hemisphere,[2]; during carotid occlusion and following ligature release,perfusion is improved in the ischemic hemisphere
same,cerebral ischemia (FIG. 9),"[2]; intubated rodents, Speckle laser Doppler tracing",reduction of cerebral ischemia
same,"Cerebral Blood Flow, Changes in ACA Watershed",[3]; Post Rx,"Normalization,"
same,"Mean Transit Time, Changes in ACA Watershed",[3]; Post Rx,Normalization
same,"Mean Transit Time, Left Hemisphere (ischemic)",[3]; Post Rx,6.0 s
same,"Mean Transit Time, Right Hemisphere (normal)",[3]; Post Rx,6.1 s
same,"Cerebral Blood Flow, increase in perfusion on L (ACA Watershed)","[3]; Post Rx vs Pre Rx, left ischemic hemisphere",67% increase in
same,"cerebral perfusion, CT perfusion scanning","[3]; intubated patients / human with focal cerebral ischemia, before vs after treatment",improvement in cerebral perfusion; also recorded: augmentation of cerebral perfusion and normalization of regional perfusion abnormalities
same,tolerability of intranasal delivery without inhalation,[4],tolerated at high concentration
